Results from patent US7432275B2, “Carboxylic acid, phosphate or phosphonate substituted quinazolin-4-ylamine analogues as capsaicin receptor modulators” (Neurogen Corporation, priority 2002, dated 2008).

These compounds were tested against T1, human capsaicin receptor (Homo sapiens, UniProt Q8NER1) (assay: Capsaicin receptor binding assay ([3H]RTX competition, membranes of VR1-transfected HEK293 cells)). Details: not given.
Source text: This Example illustrates the preparation of VR1-transfected cells and membrane preparations for use in binding assays (Example 5) and functional assays (Example 6).
This Example illustrates a representative assay of capsaicin receptor binding that may be used to determine the binding affinity of compounds for the capsaicin (VR1) receptor.
Binding studies with [^3H] […] 262:883-888.

T1 sequence (Q8NER1 whole entry): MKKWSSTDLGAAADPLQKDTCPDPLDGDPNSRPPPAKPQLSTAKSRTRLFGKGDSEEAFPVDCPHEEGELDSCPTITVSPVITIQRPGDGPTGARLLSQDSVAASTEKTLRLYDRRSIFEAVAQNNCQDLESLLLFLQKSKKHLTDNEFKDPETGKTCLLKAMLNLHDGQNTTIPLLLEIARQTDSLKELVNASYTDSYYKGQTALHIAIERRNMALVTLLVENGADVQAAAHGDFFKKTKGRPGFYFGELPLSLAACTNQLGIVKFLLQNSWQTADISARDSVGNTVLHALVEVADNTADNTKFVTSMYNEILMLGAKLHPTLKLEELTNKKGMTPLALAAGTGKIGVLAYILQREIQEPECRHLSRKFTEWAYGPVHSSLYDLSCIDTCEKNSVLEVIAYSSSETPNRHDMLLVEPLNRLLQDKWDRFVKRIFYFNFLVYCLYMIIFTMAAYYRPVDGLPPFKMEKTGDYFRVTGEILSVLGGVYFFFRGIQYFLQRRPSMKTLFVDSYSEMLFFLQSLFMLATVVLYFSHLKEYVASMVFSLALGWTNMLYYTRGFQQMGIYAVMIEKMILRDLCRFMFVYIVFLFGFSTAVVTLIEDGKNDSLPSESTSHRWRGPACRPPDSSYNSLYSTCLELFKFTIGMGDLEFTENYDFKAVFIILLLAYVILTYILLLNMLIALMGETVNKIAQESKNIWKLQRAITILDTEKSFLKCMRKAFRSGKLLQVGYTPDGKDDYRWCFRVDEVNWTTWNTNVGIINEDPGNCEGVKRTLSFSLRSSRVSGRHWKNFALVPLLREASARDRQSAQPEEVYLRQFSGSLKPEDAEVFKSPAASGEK

| Compound | Ki [nM] |
| --- | --- |
| CCOP(=O)(Cc1nc(Nc2ccc(C(F)(F)F)cc2)c2ccc(-c3ncccc3C)cc2n1)OCC [Compound 5, [7-(3-Methyl-pyridin-2-yl)-4-(4-trifluoromethyl-phenylamino)-quinazolin-2-ylmethyl]-phosphonicacid diethyl ester] | < 1000 |
| CCOP(=O)(Cc1nc(Nc2ccc(C(C)(C)C)cc2)c2ccc(-c3ncccc3C)cc2n1)OCC [Compound 16, [4-(4-tert-Butyl-phenylamino)-7-(3-methyl-pyridin-2-yl)-quinazolin-2-ylmethyl]-phosphonic acid diethylester] | < 1000 |
| CCOP(=O)(Cc1nc(Nc2ccc(C(C)(C)C)cc2)c2ccc(-c3ncccc3C(F)(F)F)cc2n1)OCC [Compound 17, [4-(4-tert-Butyl-phenylamino)-7-(3-trifluoromethyl-pyridin-2-yl)-quinazolin-2-ylmethyl]-phosphonicacid diethyl ester] | < 1000 |
| CCOP(=O)(O)Cc1nc(Nc2ccc(C(C)(C)C)cc2)c2ccc(-c3ncccc3C(F)(F)F)cc2n1 [Compound 18, [4-(4-tert-Butyl-phenylamino)-7-(3-trifluoromethyl-pyridin-2-yl)-quinazolin-2-ylmethyl]-phosphonicacid monoethyl ester] | < 1000 |

Same assay, conditions: determined as described in Example 5; read-out: Ki

| Compound | Ki [nM] |
| --- | --- |
| O=C(O)CNc1nc(Nc2ccc(C(F)(F)F)cc2)c2ccc(-c3ncccc3C(F)(F)F)cc2n1 [Compound 3, [4-(4-Trifluoromethyl-phenylamino)-7-(3-trifluoromethyl-pyridin-2-yl)-quinazolin-2-ylamino]-acetic acid] | < 1000 |
| CC(C)(C)c1ccc(Nc2nc(COP(=O)(OCc3ccccc3)OCc3ccccc3)nc3cc(-c4ncccc4C(F)(F)F)ccc23)cc1 [Compound 6, Phosphoric acid dibenzyl ester 4-(4-tert-butyl-phenylamino)-7-(3-trifluoromethyl-pyridin-2-yl)-quinazolin-2-ylmethyl ester] | < 1000 |
| CC(C)(C)c1ccc(Nc2nc(COP(=O)(O)O)nc3cc(-c4ncccc4C(F)(F)F)ccc23)cc1 [Compound 7, Phosphoric acid mono-[4-(4-tert-butyl-phenylamino)-7-(3-trifluoromethyl-pyridin-2-yl)-quinazolin-2-ylmethyl] ester] | < 1000 |
| O=P(OCc1ccccc1)(OCc1ccccc1)OCc1nc(Nc2ccc(C(F)(F)F)cc2)c2ccc(-c3ncccc3C(F)(F)F)cc2n1 [Compound 8, Phosphoric acid dibenzyl ester 4-(4-trifluoromethyl-phenylamino)-7-(3-trifluoromethyl-pyridin-2-yl)-quinazolin-2-ylmethyl ester] | < 1000 |
| CC(C)(C)c1ccc(Nc2ncnc3cc(-c4ncccc4C(F)(F)F)cnc23)cc1OCC(=O)O [Compound 13, {2-tert-Butyl-5-[7-(3-trifluoromethyl-pyridin-2-yl)-pyrido[3,2-d]pyrimidin-4-ylamino]-phenoxy}-acetic acid] | < 1000 |
| Cc1nc(Nc2ccc(C(C)(C)C(=O)O)cc2)c2ccc(-c3ncccc3C)nc2n1 [Compound 19, 2-Methyl-2-{4-[2-methyl-7-(3-methyl-pyridin-2-yl)-pyrido[2,3-d]pyrimidin-4-ylamino]-phenyl}-propionic acid] | < 1000 |
| CC(C)(C)c1ccc(Nc2ncnc3cc(-c4ncccc4C(F)(F)F)ccc23)cc1OCCN1CCC[C@H]1C(=O)O [Compound 22, (S)-1-(2-{2-tert-Butyl-5-[7-(3-trifluoromethyl-pyridin-2-yl)-quinazolin-4-ylamino]-phenoxy}-ethyl)-pyrrolidine-2-carboxylic acid] | < 1000 |
| CC(C)(C)c1ccc(Nc2ncnc3cc(-c4ncccc4C(F)(F)F)ccc23)cc1OCCOP(=O)(O)O [Compound 31, Phosphoric acid mono-(2-{2-tert-butyl-5-[7-(3-trifluoromethyl-pyridin-2-yl)-quinazolin-4-ylamino]-phenoxy}-ethyl) ester] | < 1000 |
| CC(C)(C)c1ccc(Nc2nc(CP(=O)(O)O)nc3cc(-c4ncccc4C(F)(F)F)ccc23)cc1 [Compound 32, [4-(4-tert-Butyl-phenylamino)-7-(3-trifluoromethyl-pyridin-2-yl)-quinazolin-2-ylmethyl]-phosphonicacid] | < 1000 |
| CC(C)(C)c1ccc(Nc2nc(N3CCC(C(=O)O)CC3)nc3nc(-c4ncccc4C(F)(F)F)ccc23)cc1 [Compound 44, 1-[4-(4-tert-Butyl-phenylamino)-7-(3-trifluoromethyl-pyridin-2-yl)-pyrido[2,3-d]pyrimidin-2-yl]-piperidine-4-carboxylic acid] | < 1000 |
| COCc1nc2nc(-c3ncccc3C(F)(F)F)ccc2c(Nc2ccc(C(F)(F)F)cc2)c1C(=O)O [Compound 45, 2-Methoxymethyl-4-(4-trifluoromethyl-phenylamino)-7-(3-trifluoromethyl-pyridin-2-yl)-[1,8]naphthyridine-3-carboxylic acid] | < 1000 |

What follows are compounds tested against T1, human capsaicin receptor (assay: Calcium mobilization assay). Details: capsaicin used as positive control; read-out: approximate EC90 concentration.
Type: cell-based
Experimental: Cells transfected with expression plasmids (as described in Example 4) and thereby expressing human capsaicin receptor are seeded and grown to 70-90% confluency in FALCON black-walled, clear-bottomed 96-well plates (#3904, BECTON-DICKINSON, Franklin Lakes, N.J.). […] After the incubation, the dye is emptied from the plates, and the cells are washed once with KRH buffer, and resuspended in KRH buffer.
To measure the ability of a test compound to agonize or antagonize a calcium mobilization response in cells expressing capsaicin receptors to capsaicin or other vanilloid agonist, the EC50 of the agonist capsaicin is first determined. An additional 20 μl of KRH buffer and 1 μl DMSO is added to each well of cells, prepared as described above. 100 μl capsaicin in KRH buffer is automatically transferred by the FLIPR instrument to each well. Capsaicin-induced calcium mobilization is monitored using either FLUOROSKAN ASCENT (Labsystems; Franklin, Mass.) or FLIPR (fluorometric imaging plate reader system; Molecular Devices, Sunnyvale, Calif.) instruments. […] In this equation, y is the maximum fluorescence signal, x is the concentration of the agonist or antagonist (in this case, capsaicin), a is the Emax, b corresponds to the EC50 value and c is the Hill coefficient. […]

| Compound | EC90 [nM] |
| --- | --- |
| COc1cc(CNC(=O)CCCC/C=C/C(C)C)ccc1O [capsaicin] | ~100 |
